Experimental data as given in patent US10160729B2, “Hsp70 modulators and methods for making and using the same” (Memorial Sloan Kettering Cancer Center, priority 2014, dated 2018).
pEC50: −log10 of the molar value.

What follows are compounds tested on MOLM-13 cells (assay: Caspase cleavage assay (Caspase3, 7 activation)). Conditions: Homo sapiens, 16 h treatment, caspase substrate Z-DEVD-R110, read-out: c* Concentration at which 50% of the maximum signal was achieved (caspase activation).
Format: cell-based
How it was run: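 Cells (30,000/well, RPMI) treated 16 h with compound or DMSO in triplicate, then given buffer with 10 mM HEPES pH 7.5, 2 mM EDTA, 0.1% CHAPS and 25 μM Z-DEVD-R110. Fluorescence read once signal stabilized; results given as percentage increase in apoptotic cells versus DMSO-treated control.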

Structure (SMILES) | pEC50
CN1CCN(c2ncc(Sc3ccc(C(N)=O)c(Cl)c3)c(OCc3cccc(O)c3)n2)CC1 [compound 122, 2-Chloro-4-((4-((3-hydroxybenzyl)oxy)-2-(4-methylpiperazin-1-yl)pyrimidin-5-yl)thio)benzamide] | 6.40 to 6.70
COc1cccc(COc2nc(N3CCN(C(C)C)CC3)ncc2Sc2ccc(C(N)=O)cc2)c1 [190b, 4-((2-(4-Isopropylpiperazin-1-yl)-4-((3-methoxybenzyl)oxy)pyrimidin-5-yl)thio)benzamide] | 6.40 to 6.70
CN1CCN(c2ncc(Sc3ccc(C(N)=O)c(Cl)c3)c(OCc3cccc(N(C)C)c3)n2)CC1 [compound 116, 2-Chloro-4-((4-((3-(dimethylamino)benzyl)oxy)-2-(4-methylpiperazin-1-yl)pyrimidin-5-yl)thio)benzamide] | > 6.70
COc1ccnc(COc2nc(N3CCN(C)CC3)ncc2Sc2ccc(C(N)=O)c(Cl)c2)c1 [compound 126, 2-Chloro-4-((4-((4-methoxypyridin-2-yl)methoxy)-2-(4-methylpiperazin-1-yl)pyrimidin-5-yl)thio)benzamide] | 6.40 to 6.70
CN1CCN(c2ncc(Sc3ccc(C(N)=O)cc3)c(OCc3cccc(I)c3)n2)CC1 [100s, 4-((4-((3-Iodobenzyl)oxy)-2-(4-methylpiperazin-1-yl)pyrimidin-5-yl)thio)benzamide] | 6.40 to 6.70
CN1CCN(c2ncc(Sc3ccc(N)nc3)c(OCc3cccc(N(C)C)c3)n2)CC1 [compound 153, 5-((4-((3-(Dimethylamino)benzyl)oxy)-2-(4-methylpiperazin-1-yl)pyrimidin-5-yl)thio)pyridin-2-amine] | > 6.70
CN1CCN(c2ncc(Sc3ccc(C(N)=O)cc3)c(OCc3ccc(I)cc3)n2)CC1 [100v, 4-((4-((4-Iodobenzyl)oxy)-2-(4-methylpiperazin-1-yl)pyrimidin-5-yl)thio)benzamide] | ≤ 5.92
CN1CCN(c2ncc(Sc3ccc(C(N)=O)c(Cl)c3)c(OCc3cccc(N)c3)n2)CC1 [compound 117, 4-((4-((3-Aminobenzyl)oxy)-2-(4-methylpiperazin-1-yl)pyrimidin-5-yl)thio)-2-chlorobenzamide] | 6.40 to 6.70
COc1cc(F)cc(COc2nc(N3CCN(C)CC3)ncc2Sc2ccc(C(N)=O)c(Cl)c2)c1 [compound 110, 2-Chloro-4-((4-((3-fluoro-5-methoxybenzyl)oxy)-2-(4-methylpiperazin-1-yl)pyrimidin-5-yl)thio)benzamide] | 6.40 to 6.70
COC(=O)c1ccc(Sc2cnc(N3CCN(C)CC3)nc2OCc2ccccc2)cc1 [compound 49, Methyl 4-((4-(benzyloxy)-2-(4-methylpiperazin-1-yl)pyrimidin-5-yl)thio)benzoate] | 6.40 to 6.70
CN1CCN(c2ncc(Sc3ccc(N)nc3)c(OCc3ccc(F)cc3)n2)CC1 [146c, 5-((4-((4-Fluorobenzyl)oxy)-2-(4-methylpiperazin-1-yl)pyrimidin-5-yl)thio)pyridin-2-amine] | 6.40 to 6.70
CN1CCN(c2ncc(Sc3cccc(C(N)=O)c3)c(OCc3ccccc3)n2)CC1 [compound 67, 3-((4-(Benzyloxy)-2-(4-methylpiperazin-1-yl)pyrimidin-5-yl)thio)benzamide] | 6.40 to 6.70
CN1CCN(c2ncc(Sc3ccc(C(N)=O)c(C(F)(F)F)c3)c(NCc3cccc(Cl)c3)n2)CC1 [compound 141, 4-((4-((3-Chlorobenzyl)amino)-2-(4-methylpiperazin-1-yl)pyrimidin-5-yl)thio)-2-(trifluoromethyl)benzamide] | 5.92 to 6.00
CN1CCN(c2ncc(Sc3ccc(C(N)=O)c(Cl)c3)c(OCc3ccccc3)n2)CC1 [compound 78, 4-((4-(Benzyloxy)-2-(4-methylpiperazin-1-yl)pyrimidin-5-yl)thio)-2-chlorobenzamide] | 6.00 to 6.40
COc1cc(COc2nc(N3CCN(C)CC3)ncc2Sc2ccc(C(N)=O)c(C(F)(F)F)c2)ccc1F [compound 137, 4-((4-((4-Fluoro-3-methoxybenzyl)oxy)-2-(4-methylpiperazin-1-yl)pyrimidin-5-yl)thio)-2-(trifluoromethyl)benzamide] | > 6.70
CN1CCN(c2ncc(Sc3cccc(C#N)c3)c(OCc3ccccc3)n2)CC1 [compound 47, 3-((4-(Benzyloxy)-2-(4-methylpiperazin-1-yl)pyrimidin-5-yl)thio)benzonitrile] | 6.00 to 6.40
COc1ccc(F)c(COc2nc(N3CCN(C)CC3)ncc2Sc2ccc(N)nc2)c1 [compound 157, 5-((4-((2-Fluoro-5-methoxybenzyl)oxy)-2-(4-methylpiperazin-1-yl)pyrimidin-5-yl)thio)pyridin-2-amine] | > 6.70
CN(C)[C@H]1CCN(c2ncc(Sc3ccc(C(N)=O)cc3)c(OCc3ccccc3)n2)C1 [179c, (S)-4-((4-(Benzyloxy)-2-(3-(dimethylamino)pyrrolidin-1-yl)pyrimidin-5-yl)thio)benzamide] | ≤ 5.92
CN1CCN(c2ncc(Sc3ccc(C(N)=O)c(C(F)(F)F)c3)c(OCc3cccc(N(C)C)c3)n2)CC1 [compound 139, 4-((4-((3-(Dimethylamino)benzyl)oxy)-2-(4-methylpiperazin-1-yl)pyrimidin-5-yl)thio)-2-(trifluoromethyl)benzamide] | > 6.70
CN1CCN(c2ncc(Sc3ccc(C(N)=O)cc3)c(OCc3cccc(C(N)=O)c3)n2)CC1 [100w, 3-(((5-((4-Carbamoylphenyl)thio)-2-(4-methylpiperazin-1-yl)pyrimidin-4-yl)oxy)methyl)benzamide] | 6.00 to 6.40
CN1CCN(c2ncc(Sc3ccc(C(N)=O)c(F)c3)c(OCc3ccccc3)n2)CC1 [compound 79, 4-((4-(Benzyloxy)-2-(4-methylpiperazin-1-yl)pyrimidin-5-yl)thio)-2-fluorobenzamide] | 6.40 to 6.70
CN1CCN(c2ncc(Sc3ccc(C(N)=O)cc3)c(OCc3cccc(NC4CC4)c3)n2)CC1 [100e, 4-((4-((3-(Cyclopropylamino)benzyl)oxy)-2-(4-methylpiperazin-1-yl)pyrimidin-5-yl)thio)benzamide] | > 6.70
CN1CCN(c2ncc(Sc3ccc(C(N)=O)c(C(F)(F)F)c3)c(OCc3cc(Cl)ccc3F)n2)CC1 [compound 133, 4-((4-((5-Chloro-2-fluorobenzyl)oxy)-2-(4-methylpiperazin-1-yl)pyrimidin-5-yl)thio)-2-(trifluoromethyl)benzamide] | > 6.70

Other lines, results leading:

pEC50 | Structure (SMILES)
≤ 5.92 | CC(=O)N1CCN(c2ncc(Sc3ccc(C(N)=O)cc3)c(OCc3ccccc3)n2)CC1 [compound 168, 4-((2-(4-Acetylpiperazin-1-yl)-4-(benzyloxy)pyrimidin-5-yl)thio)benzamide]
≤ 5.92 | CN1CCN(c2ncc(Cc3ccc(C(N)=O)cc3)c(OCc3ccc(C#N)cc3)n2)CC1 [compound 304, 4-((4-((4-Cyanobenzyl)oxy)-2-(4-methylpiperazin-1-yl)pyrimidin-5-yl)methyl)benzamide]
5.92 to 6.00 | COc1cccc(COc2nc(N3CCN([C@@H](C)C4CC4)CC3)ncc2Sc2ccc(C(N)=O)cc2)c1 [compound 315, (S)-4-((2-(4-(1-Cyclopropylethyl)piperazin-1-yl)-4-((3-methoxybenzyl)oxy)pyrimidin-5-yl)thio)benzamide]
6.40 to 6.70 | NC(=O)c1ccc(Sc2cnc(N3CCN(Cc4nccs4)CC3)nc2OCc2cccc(Cl)c2)cc1C(F)(F)F [compound 229, 4-((4-((3-Chlorobenzyl)oxy)-2-(4-(thiazol-2-ylmethyl)piperazin-1-yl)pyrimidin-5-yl)thio)-2-(trifluoromethyl)benzamide]
> 6.70 | COc1cc(COc2nc(N3CC[C@@H](N(C)C)C3)ncc2Sc2ccc(C(N)=O)cc2)ccc1F [compound 208, (R)-4-((2-(3-(Dimethylamino)pyrrolidin-1-yl)-4-((4-fluoro-3-methoxybenzyl)oxy)pyrimidin-5-yl)thio)benzamide]
> 6.70 | C#CCN1CCN(c2ncc(Sc3ccc(C(N)=O)cc3)c(OCc3cccc(OC)c3)n2)CC1 [compound 198, 4-((4-((3-Methoxybenzyl)oxy)-2-(4-(prop-2-yn-1-yl)piperazin-1-yl)pyrimidin-5-yl)thio)benzamide]
5.92 to 6.00 | CN1CCN(c2ncc(Sc3ccc(C(N)=O)c(C(F)(F)F)c3)c(OCc3cccc(N(C)C)c3)n2)CC1=O [compound 345, 4-((4-((3-(Dimethylamino)benzyl)oxy)-2-(4-methyl-3-oxopiperazin-1-yl)pyrimidin-5-yl)thio)-2-(trifluoromethyl)benzamide]
≤ 5.92 | C[C@@H]1CN(C)[C@@H](C)CN1c1ncc(Sc2ccc(C(N)=O)cc2)c(OCc2ccccc2)n1 [compound 182, 4-((4-(Benzyloxy)-2-((2R,5S)-2,4,5-trimethylpiperazin-1-yl)pyrimidin-5-yl)thio)benzamide]
6.40 to 6.70 | CN(C)C1CN(c2ncc(Sc3ccc(C(N)=O)c(C(F)(F)F)c3)c(OCc3cccc(Cl)c3)n2)C1 [compound 225, 4-((4-((3-Chlorobenzyl)oxy)-2-(3-(dimethylamino)azetidin-1-yl)pyrimidin-5-yl)thio)-2-(trifluoromethyl)benzamide]
6.40 to 6.70 | CN(C)[C@@H]1CCN(c2ncc(Sc3ccc(C(N)=O)cc3)c(OCc3cccc(F)c3)n2)C1 [compound 363, (R)-4-((2-(3-(Dimethylamino)pyrrolidin-1-yl)-4-((3-fluorobenzyl)oxy)pyrimidin-5-yl)thio)benzamide]
> 6.70 | COc1cccc(COc2nc(N3CCN(Cc4ncco4)CC3)ncc2Sc2ccc(C(N)=O)cc2)c1 [compound 323, 4-((4-((3-Methoxybenzyl)oxy)-2-(4-(oxazol-2-ylmethyl)piperazin-1-yl)pyrimidin-5-yl)thio)benzamide]
≤ 5.92 | COc1ccc(COc2nc(N3CCN(C)CC3)ncc2Oc2ccc(C(N)=O)cc2)cc1 [compound 283, 4-((4-((4-Methoxybenzyl)oxy)-2-(4-methylpiperazin-1-yl)pyrimidin-5-yl)oxy)benzamide]
6.00 to 6.40 | C#CCN1CCN(c2ncc(Sc3ccc(C(N)=O)cc3)c(OCc3cccc(Cl)c3)n2)CC1 [compound 348, 4-((4-((3-Chlorobenzyl)oxy)-2-(4-(prop-2-yn-1-yl)piperazin-1-yl)pyrimidin-5-yl)thio)benzamide]
